From ChEMBL document CHEMBL4118276, “The mimics of Nε-acyl-lysine derived from cysteine as sirtuin inhibitors” (Bioorg Med Chem Lett, 2018) come the findings set out here.

The source made the active and inactive calls. The calls are words filed in the database; no cut-off is given here. Residues, ends and D or L forms follow the SMILES beside them. *: point of attachment. X6 = O=C(CCC*)NCc1ccc([N+](=O)[O-])cc1; X10 = O=C(O)CCCNC(=O)CCC*; X7 = O=C(CCC*)NCc1ccccc1; X4 = O=C(O)CCNC(=O)CCC*; X13 = CCCCCCNC(=O)CCC*; X8 = O=C(O)CNC(=O)CCC*; X12 = CCCCNC(=O)CCC*; X11 = CNC(=O)CCC*; X9 = CCNC(=O)CCC*; X5 = NC(=O)CCC*

As a reminder, the inhibition is the relative decrease from the control value, in per cent.

For experiment [1], the target named is T1, NAD-dependent protein deacetylase sirtuin-1 (Homo sapiens) (UniProt Q96EB6).
T1 sequence (whole entry): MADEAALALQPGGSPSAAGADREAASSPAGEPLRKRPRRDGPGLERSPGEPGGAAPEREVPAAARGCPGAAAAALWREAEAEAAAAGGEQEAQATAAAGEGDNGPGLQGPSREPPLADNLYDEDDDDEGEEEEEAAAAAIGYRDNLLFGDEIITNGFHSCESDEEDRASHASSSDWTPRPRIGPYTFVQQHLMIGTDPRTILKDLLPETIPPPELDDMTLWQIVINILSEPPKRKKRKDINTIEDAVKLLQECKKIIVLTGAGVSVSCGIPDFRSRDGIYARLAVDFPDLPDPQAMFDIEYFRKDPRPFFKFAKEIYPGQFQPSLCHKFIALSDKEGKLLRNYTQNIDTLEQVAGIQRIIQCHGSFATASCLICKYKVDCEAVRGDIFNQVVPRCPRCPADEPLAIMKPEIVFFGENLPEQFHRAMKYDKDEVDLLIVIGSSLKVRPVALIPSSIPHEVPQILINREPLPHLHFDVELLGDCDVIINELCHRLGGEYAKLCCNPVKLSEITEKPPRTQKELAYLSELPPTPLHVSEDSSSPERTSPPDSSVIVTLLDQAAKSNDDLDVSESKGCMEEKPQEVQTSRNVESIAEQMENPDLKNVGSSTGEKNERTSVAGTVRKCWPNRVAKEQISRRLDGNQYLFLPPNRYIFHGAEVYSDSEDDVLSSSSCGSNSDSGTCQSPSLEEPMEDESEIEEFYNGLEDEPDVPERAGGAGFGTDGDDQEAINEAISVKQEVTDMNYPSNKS
As to the kind of experiment: Inhibition of human SIRT1 expressed in Escherichia coli BL21 at 333 uM using H3K9AcWW as substrate preincubated for 15 mins followed by substrate addition measured after 1 hr by HPLC analysis relative to control.

Experiment [2] has as its target T2, NAD-dependent protein deacetylase sirtuin-2 (Homo sapiens) (UniProt Q8IXJ6).
T2 sequence (whole entry): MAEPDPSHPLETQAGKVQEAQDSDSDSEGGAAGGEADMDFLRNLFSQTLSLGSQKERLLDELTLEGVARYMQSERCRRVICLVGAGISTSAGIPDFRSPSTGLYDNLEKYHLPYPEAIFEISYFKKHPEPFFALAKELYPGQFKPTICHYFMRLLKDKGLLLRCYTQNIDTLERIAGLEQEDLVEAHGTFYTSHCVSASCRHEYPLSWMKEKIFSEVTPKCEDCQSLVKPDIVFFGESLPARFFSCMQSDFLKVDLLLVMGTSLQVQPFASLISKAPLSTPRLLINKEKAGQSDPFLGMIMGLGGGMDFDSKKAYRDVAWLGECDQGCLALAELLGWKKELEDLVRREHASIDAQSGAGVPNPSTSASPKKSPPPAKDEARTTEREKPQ
Nature of the experiment: Inhibition of human N-terminal His6-SUMO-tagged SIRT2 (38 to 356 residues) expressed in Escherichia coli BL21 at 333 uM using H3K9AcWW as substrate preincubated for 15 mins followed by substrate addition measured after 1 hr by HPLC analysis relative to control.

Experiment [3] concerns the target T3, NAD-dependent protein deacetylase sirtuin-3, mitochondrial (Homo sapiens) (UniProt Q9NTG7).
T3 sequence (whole entry): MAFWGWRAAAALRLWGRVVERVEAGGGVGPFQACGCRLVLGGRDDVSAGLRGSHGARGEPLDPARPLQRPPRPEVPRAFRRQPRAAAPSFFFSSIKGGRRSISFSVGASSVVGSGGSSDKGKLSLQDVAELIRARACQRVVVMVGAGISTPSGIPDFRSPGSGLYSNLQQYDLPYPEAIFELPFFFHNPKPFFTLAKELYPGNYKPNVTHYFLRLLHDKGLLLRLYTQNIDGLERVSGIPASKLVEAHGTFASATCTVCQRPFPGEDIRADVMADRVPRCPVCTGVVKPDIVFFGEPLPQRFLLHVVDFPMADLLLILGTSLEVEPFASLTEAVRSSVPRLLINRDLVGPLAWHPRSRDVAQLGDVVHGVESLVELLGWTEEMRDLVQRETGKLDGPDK
As to the kind of experiment: Inhibition of human SIRT3 expressed in Escherichia coli BL21 at 333 uM using H3K9AcWW as substrate preincubated for 15 mins followed by substrate addition measured after 1 hr by HPLC analysis relative to control.

Experiment [4] concerns the target T4, NAD-dependent protein deacylase sirtuin-5, mitochondrial (Homo sapiens, UniProt Q9NXA8). Nature of the experiment: Inhibition of human SIRT5 expressed in Escherichia coli BL21 at 333 uM using H3K9AcWW as substrate preincubated for 15 mins followed by substrate addition measured after 1 hr by HPLC analysis relative to control.
Experiment [5] addresses T5, NAD-dependent protein deacylase sirtuin-6 (Homo sapiens, UniProt Q8N6T7). Nature of the experiment: Inhibition of human SIRT6 (1 to 294 residues) expressed in Escherichia coli Rosetta (DE3) at 333 uM using H3K9AcWW as substrate preincubated for 15 mins followed by substrate addition measured after 1 hr by HPLC analysis relative to control.
Experiment [6] addresses T1, NAD-dependent protein deacetylase sirtuin-1 (Homo sapiens). As to the kind of experiment: Inhibition of human SIRT1 expressed in Escherichia coli BL21 at 250 uM using H3K9AcWW as substrate preincubated for 15 mins followed by substrate addition measured after 1 hr by HPLC analysis relative to control.
The target of experiment [7] is T4, NAD-dependent protein deacylase sirtuin-5, mitochondrial. As to the kind of experiment: Inhibition of human SIRT5 expressed in Escherichia coli BL21 at 250 uM using H3K9AcWW as substrate preincubated for 15 mins followed by substrate addition measured after 1 hr by HPLC analysis relative to control.
The target in experiment [8] is T5, NAD-dependent protein deacylase sirtuin-6. Nature of the experiment: Inhibition of human SIRT6 (1 to 294 residues) expressed in Escherichia coli Rosetta (DE3) at 250 uM using H3K9AcWW as substrate preincubated for 15 mins followed by substrate addition measured after 1 hr by HPLC analysis relative to control.
In experiment [9] the target is T2, NAD-dependent protein deacetylase sirtuin-2 (Homo sapiens). As to the kind of experiment: Inhibition of human N-terminal His6-SUMO-tagged SIRT2 (38 to 356 residues) expressed in Escherichia coli BL21 at 250 uM using H3K9AcWW as substrate preincubated for 15 mins followed by substrate addition measured after 1 hr by HPLC analysis relative to control.

T4 sequence (Q9NXA8 37-310 limits assumed): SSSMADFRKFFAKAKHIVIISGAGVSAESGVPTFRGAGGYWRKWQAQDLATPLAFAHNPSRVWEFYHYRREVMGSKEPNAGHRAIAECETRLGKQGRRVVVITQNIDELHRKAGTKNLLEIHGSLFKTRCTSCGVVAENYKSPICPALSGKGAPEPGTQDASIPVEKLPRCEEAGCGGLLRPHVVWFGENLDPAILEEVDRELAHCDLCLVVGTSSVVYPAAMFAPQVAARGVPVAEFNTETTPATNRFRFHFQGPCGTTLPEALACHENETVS
T5 sequence (Q8N6T7 whole entry, the tested form may be a part): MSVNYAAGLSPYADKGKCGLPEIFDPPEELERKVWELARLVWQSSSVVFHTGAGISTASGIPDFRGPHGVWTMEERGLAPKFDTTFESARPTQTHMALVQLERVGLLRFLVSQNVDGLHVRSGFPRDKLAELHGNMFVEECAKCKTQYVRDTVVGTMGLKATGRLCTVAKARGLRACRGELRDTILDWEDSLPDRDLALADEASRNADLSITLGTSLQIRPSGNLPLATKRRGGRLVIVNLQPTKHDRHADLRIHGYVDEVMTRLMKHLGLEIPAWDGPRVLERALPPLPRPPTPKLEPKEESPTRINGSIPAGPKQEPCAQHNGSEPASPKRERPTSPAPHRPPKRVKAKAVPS

As to `CCCCCCCCNC(=O)CCCSC[C@H](NC(=O)OCc1ccccc1)C(=O)Nc1ccccc1`, the inhibition result in experiment [1], in experiment [3] and in experiment [5] was “inactive” in each case. Moreover, the inhibition worked out at 60% in experiment [2] and 14% in [4].

Take `C[C@H](NC(=O)[C@@H](NC(=O)[C@H](CCC(N)=O)NC(=O)[C@@H](N)CCCCN)[C@@H](C)O)C(=O)N[C@@H](CCCNC(=N)N)C(=O)N[C@@H](CSCCCC(=O)NCCCC(=O)O)C(=O)N[C@@H](CO)C(=O)N[C@H](C(=O)NCC(=O)NCC(=O)N[C@@H](CCCCN)C(=O)O)[C@@H](C)O` (H-KQTARC(X10)STGGK-OH): the inhibition in experiment [6] was 23%; in [7], 16%; in experiment [8], 43%; in experiment [9], 33%.

For the molecule `NC(=O)CCCSC[C@H](NC(=O)OCc1ccccc1)C(=O)Nc1ccccc1`, the inhibition result in [1], in experiment [2], in [3] and in experiment [4] was “inactive” throughout. Also, the inhibition in experiment [5] was found to be 11%.

For `O=C(O)CCCNC(=O)CCCSC[C@H](NC(=O)OCc1ccccc1)C(=O)Nc1ccccc1`, the inhibition result in [1], in experiment [2], in [3] and in [4] was “inactive” each time. The inhibition in [5] worked out at 35%.

For the molecule `NC(=O)c1cccnc1`, the inhibition in [6] came out at 73%; in experiment [7] it was 69%; in [8], 76%; in experiment [9] it was 83%.

In the case of `CCCCNC(=O)CCCSC[C@H](NC(=O)[C@H](CCCNC(=N)N)NC(=O)[C@H](C)NC(=O)[C@@H](NC(=O)[C@H](CCC(N)=O)NC(=O)[C@@H](N)CCCCN)[C@@H](C)O)C(=O)N[C@@H](CO)C(=O)N[C@H](C(=O)NCC(=O)NCC(=O)N[C@@H](CCCCN)C(=O)O)[C@@H](C)O` (H-KQTARC(X12)STGGK-OH), the inhibition in experiment [6] came to 30%; in experiment [9], 12%. Besides, the inhibition result in experiment [7] and in experiment [8] was “inactive” each time.

For `CCCCCCNC(=O)CCCSC[C@H](NC(=O)[C@H](CCCNC(=N)N)NC(=O)[C@H](C)NC(=O)[C@@H](NC(=O)[C@H](CCC(N)=O)NC(=O)[C@@H](N)CCCCN)[C@@H](C)O)C(=O)N[C@@H](CO)C(=O)N[C@H](C(=O)NCC(=O)NCC(=O)N[C@@H](CCCCN)C(=O)O)[C@@H](C)O` (H-KQTARC(X13)STGGK-OH), the inhibition in experiment [6] came out at 36%; in experiment [9], 20%. The inhibition result in experiment [7] and in experiment [8] was “inactive” in each case.

For `CNC(=O)CCCSC[C@H](NC(=O)[C@H](CCCNC(=N)N)NC(=O)[C@H](C)NC(=O)[C@@H](NC(=O)[C@H](CCC(N)=O)NC(=O)[C@@H](N)CCCCN)[C@@H](C)O)C(=O)N[C@@H](CO)C(=O)N[C@H](C(=O)NCC(=O)NCC(=O)N[C@@H](CCCCN)C(=O)O)[C@@H](C)O` (H-KQTARC(X11)STGGK-OH), the inhibition in [6] amounted to 34%; in experiment [7] it was 10%. Also, the inhibition entry in experiment [8] and in experiment [9] was “inactive” in each case.

`C[C@H](NC(=O)[C@@H](NC(=O)[C@H](CCC(N)=O)NC(=O)[C@@H](N)CCCCN)[C@@H](C)O)C(=O)N[C@@H](CCCNC(=N)N)C(=O)N[C@@H](CSCCCC(=O)NCC(=O)O)C(=O)N[C@@H](CO)C(=O)N[C@H](C(=O)NCC(=O)NCC(=O)N[C@@H](CCCCN)C(=O)O)[C@@H](C)O` (H-KQTARC(X8)STGGK-OH): the inhibition in [6] was 60%; in experiment [7], 20%; in experiment [8], 25%; in [9], 28%.

Regarding `C[C@H](NC(=O)[C@@H](NC(=O)[C@H](CCC(N)=O)NC(=O)[C@@H](N)CCCCN)[C@@H](C)O)C(=O)N[C@@H](CCCNC(=N)N)C(=O)N[C@@H](CSCCCC(=O)NCCC(=O)O)C(=O)N[C@@H](CO)C(=O)N[C@H](C(=O)NCC(=O)NCC(=O)N[C@@H](CCCCN)C(=O)O)[C@@H](C)O` (H-KQTARC(X4)STGGK-OH), the inhibition in experiment [6] worked out at 66%; in [7], 15%; in experiment [8] it was 54%; in experiment [9], 45%.

For `C[C@H](NC(=O)[C@@H](NC(=O)[C@H](CCC(N)=O)NC(=O)[C@@H](N)CCCCN)[C@@H](C)O)C(=O)N[C@@H](CCCNC(=N)N)C(=O)N[C@@H](CSCCCC(=O)NCc1ccc([N+](=O)[O-])cc1)C(=O)N[C@@H](CO)C(=O)N[C@H](C(=O)NCC(=O)NCC(=O)N[C@@H](CCCCN)C(=O)O)[C@@H](C)O` (H-KQTARC(X6)STGGK-OH), the inhibition was 38% in [6], 26% in [8] and 26% in [9]. Also, the inhibition entry in experiment [7] was “inactive”.

On to `CCNC(=O)CCCSC[C@H](NC(=O)[C@H](CCCNC(=N)N)NC(=O)[C@H](C)NC(=O)[C@@H](NC(=O)[C@H](CCC(N)=O)NC(=O)[C@@H](N)CCCCN)[C@@H](C)O)C(=O)N[C@@H](CO)C(=O)N[C@H](C(=O)NCC(=O)NCC(=O)N[C@@H](CCCCN)C(=O)O)[C@@H](C)O` (H-KQTARC(X9)STGGK-OH), for which the inhibition in experiment [6] was determined as 35%; in experiment [9] it was 13%. For the same molecule, the inhibition result in [7] and in experiment [8] was “inactive” in each case.

Regarding `C[C@H](NC(=O)[C@@H](NC(=O)[C@H](CCC(N)=O)NC(=O)[C@@H](N)CCCCN)[C@@H](C)O)C(=O)N[C@@H](CCCNC(=N)N)C(=O)N[C@@H](CSCCCC(N)=O)C(=O)N[C@@H](CO)C(=O)N[C@H](C(=O)NCC(=O)NCC(=O)N[C@@H](CCCCN)C(=O)O)[C@@H](C)O` (H-KQTARC(X5)STGGK-OH), the inhibition in experiment [6] worked out at 40%; in experiment [7] it was 18%; in [9] it was 27%. In addition, the inhibition entry in [8] was “inactive”.

For the molecule `C[C@H](NC(=O)[C@@H](NC(=O)[C@H](CCC(N)=O)NC(=O)[C@@H](N)CCCCN)[C@@H](C)O)C(=O)N[C@@H](CCCNC(=N)N)C(=O)N[C@@H](CSCCCC(=O)NCc1ccccc1)C(=O)N[C@@H](CO)C(=O)N[C@H](C(=O)NCC(=O)NCC(=O)N[C@@H](CCCCN)C(=O)O)[C@@H](C)O` (H-KQTARC(X7)STGGK-OH), the inhibition in experiment [6] was 30%; in [8], 28%. In addition, the inhibition result in [7] and in [9] was “inactive” in each case.
